≈ marks a conversion by molar mass, not a printed value.

We go through 16 molecules from ChEMBL document CHEMBL1145470, “Identification of the novel narrow-spectrum beta-lactamase SCO-1 in Acinetobacter spp. from Argentina” (Antimicrob Agents Chemother, 2007).

Assay [1] has as its system Escherichia coli. Put plainly: Antibacterial activity against Escherichia coli DH10B expressing SCO1 by agar dilution technique. The format is functional.
Assay [2] concerns Escherichia coli. Put plainly: Antibacterial activity against Escherichia coli DH10B by agar dilution technique. The format is functional.
For assay [3], the system named is Acinetobacter johnsonii. Put plainly: Antibacterial activity against Acinetobacter johnsonii 7037 expressing SCO1 by agar dilution technique. The format is functional.
Assay [4] concerns Acinetobacter johnsonii. As to the kind of experiment: Activity of Acinetobacter johnsonii SCO1.
Assay [5] has as its system Acinetobacter johnsonii. As to the kind of experiment: Ratio of kcat to Km for Acinetobacter johnsonii SCO1.
A short description of assay [6]: Inhibition of Acinetobacter johnsonii SCO1.

For the molecule `CC(=O)OCC1=C(C(=O)O)N2C(=O)[C@@H](NC(=O)Cc3cccs3)[C@H]2SC1` [CEPHALOTHIN], the minimal inhibitory concentration (MIC) in assay [1] is 8 µg/mL (≈ 20.2 µM); in assay [2], 2 µg/mL (≈ 5.04 µM); in assay [3] it was more than 512 µg/mL. Further, the Km in assay [4] turned out to be 120 µM. For the same molecule, in assay [4], the catalytic constant (kcat) stood at 0.1 s⁻¹. Further, the Ratio in assay [5] was 1 mM⁻¹ s⁻¹.
In assay [3], `C[C@@H](O)[C@H]1C(=O)N2C(C(=O)O)=C(SCCNC=N)C[C@H]12` [IMIPENEM ANHYDROUS] registered an MIC of 0.12 µg/mL (≈ 0.401 µM). Further, in assay [4], the Km was 3800 µM and the kcat worked out at 0.03 s⁻¹. The Ratio in assay [5] turned out to be 0.008 mM⁻¹ s⁻¹.
`CO/N=C(\C(=O)N[C@@H]1C(=O)N2C(C(=O)O)=C(COC(C)=O)CS[C@H]12)c1csc(N)n1` [CEFOTAXIME]: the minimum inhibitory concentration (MIC) in assay [1] is 0.25 µg/mL (≈ 0.549 µM); in assay [2], 0.12 µg/mL (≈ 0.263 µM); in assay [3] it was more than 512 µg/mL. The Michaelis-Menten constant (Km) in assay [4] was 2000 µM. Also, the kcat in assay [4] came out at 0.1 s⁻¹. The Ratio in assay [5] came to 0.05 mM⁻¹ s⁻¹.
Turning to `C[C@@H](O)[C@H]1C(=O)N2C(C(=O)O)=C(S[C@@H]3CN[C@H](C(=O)N(C)C)C3)[C@H](C)[C@H]12`, the kcat in assay [4] is less than 0.01 s⁻¹.
The molecule `C[C@]1(Cn2ccnn2)[C@H](C(=O)O)N2C(=O)C[C@H]2S1(=O)=O` [TAZOBACTAM] registered an IC50 in assay [6] of 1200 nM.
`C[C@H]1[C@H](NC(=O)/C(=N\OC(C)(C)C(=O)O)c2csc(N)n2)C(=O)N1S(=O)(=O)O` [AZTREONAM] came in with an MIC in assay [3] of more than 512 µg/mL. For the same molecule, in assay [4], the kcat is less than 0.01 s⁻¹.
As to `CC1(C)S[C@@H]2[C@H](NC(=O)[C@H](N)c3ccccc3)C(=O)N2[C@H]1C(=O)O`, in assay [4], the Km was 40 µM and the kcat worked out at 270 s⁻¹. In addition, the Ratio in assay [5] is 6700 mM⁻¹ s⁻¹.
For the molecule `CCN1CCN(C(=O)N[C@@H](C(=O)N[C@@H]2C(=O)N3[C@@H]2SC(C)(C)[C@@H]3C(=O)O)c2ccccc2)C(=O)C1=O` [PIPERACILLIN], the MIC in assay [1] was 128 µg/mL (≈ 247 µM); in assay [2], 1 µg/mL (≈ 1.93 µM); in assay [3], 64 µg/mL (≈ 124 µM). Moreover, in assay [4], the Km was found to be 10 µM. Also, the kcat in assay [4] worked out at 0.4 s⁻¹. For the same molecule, the Ratio in assay [5] amounted to 40 mM⁻¹ s⁻¹.
Consider `CO/N=C(\C(=O)N[C@@H]1C(=O)N2C(C(=O)O)=C(COC(N)=O)CS[C@H]12)c1ccco1` [CEFUROXIME], for which the MIC in assay [1] is 4 µg/mL (≈ 9.43 µM); in assay [2], 2 µg/mL (≈ 4.71 µM); in assay [3], more than 512 µg/mL. For the same molecule, in assay [4], the Michaelis-Menten constant (Km) amounted to 650 µM. For the same molecule, the turnover number (kcat) in assay [4] stood at 0.05 s⁻¹. In assay [5], the Ratio was 0.08 mM⁻¹ s⁻¹.
Consider `CO[C@@]1(NC(=O)Cc2cccs2)C(=O)N2C(C(=O)O)=C(COC(N)=O)CS[C@@H]21` [CEFOXITIN], for which the MIC in assay [1] was 4 µg/mL (≈ 9.36 µM); in assay [2], 4 µg/mL (≈ 9.36 µM); in assay [3], more than 512 µg/mL. Besides, the kcat in assay [4] is less than 0.01 s⁻¹.
`CO/N=C(\C(=O)N[C@@H]1C(=O)N2C(C(=O)[O-])=C(C[N+]3(C)CCCC3)CS[C@H]12)c1csc(N)n1` [CEFEPIME]: the MIC was 0.12 µg/mL (≈ 0.25 µM) in assay [1] and more than 512 µg/mL in assay [3]. Also, in assay [4], the Km is more than 2000 µM. For the same molecule, the kcat in assay [4] is more than 1.5 s⁻¹. Also, the Ratio in assay [5] was determined as 0.8 mM⁻¹ s⁻¹.
For `CC1(C)S[C@@H]2[C@H](NC(=O)Cc3ccccc3)C(=O)N2[C@H]1C(=O)O`, in assay [4], the Km came to 20 µM and the kcat turned out to be 150 s⁻¹. The Ratio in assay [5] turned out to be 7500 mM⁻¹ s⁻¹.
As for `CC(C)(O/N=C(\C(=O)N[C@@H]1C(=O)N2C(C(=O)[O-])=C(C[n+]3ccccc3)CS[C@H]12)c1csc(N)n1)C(=O)O` [CEFTAZIDIME], the MIC in assay [1] is 0.5 µg/mL (≈ 0.915 µM); in assay [2], 0.06 µg/mL (≈ 0.11 µM); in assay [3] it was more than 512 µg/mL. Besides, the Km in assay [4] was found to be 600 µM. Further, the catalytic constant (kcat) in assay [4] was 0.3 s⁻¹. In addition, the Ratio in assay [5] amounted to 0.5 mM⁻¹ s⁻¹.
As to `CC1(C)S[C@@H]2[C@H](NC(=O)[C@H](N)c3ccc(O)cc3)C(=O)N2[C@H]1C(=O)O` [AMOXICILLIN], the MIC in assay [1] was more than 512 µg/mL; in assay [2], 2 µg/mL (≈ 5.47 µM); in assay [3], more than 512 µg/mL.
Turning to `O=C(O)[C@H]1/C(=C/CO)O[C@@H]2CC(=O)N21` [CLAVULANIC ACID], the IC50 in assay [6] amounted to 300 nM.
For the molecule `CC1(C)S[C@@H]2[C@H](NC(=O)[C@H](C(=O)O)c3ccsc3)C(=O)N2[C@H]1C(=O)O` [TICARCILLIN], the MIC in assay [1] was more than 512 µg/mL; in assay [2], 2 µg/mL (≈ 5.2 µM); in assay [3], more than 512 µg/mL. Also, the Km in assay [4] is 80 µM. Further, the kcat in assay [4] is 35 s⁻¹. The Ratio in assay [5] was determined as 450 mM⁻¹ s⁻¹.
